Experimental data as given in ChEMBL document CHEMBL5214883, “Comprehensive review for anticancer hybridized multitargeting HDAC inhibitors” (Eur J Med Chem, 2021).
Each block holds one compound with its values, some of them ahead of it.

How the values were obtained:
Tubulin = test: Inhibition of tubulin polymerization (unknown origin) incubated for 15 mins in presence of GTP by fluorescence-based tubulin polymerization assay kit; format: protein-complex assay, Homo sapiens
Histone deacetylase [1] = test: Inhibition of HDAC (unknown origin); format: protein assay, Homo sapiens
Histone deacetylase 1 [2] = molecular target: T1, Histone deacetylase 1 (Homo sapiens, UniProt Q13547); test: Inhibition of HDAC1 (unknown origin)
[3] = system: Panel NCI-60 (60 carcinoma cell lines); test: Cytotoxicity against human Panel NCI-60 (60 carcinoma cell lines); format: functional, cell-based
[4] = molecular target: Histone-lysine N-methyltransferase EZH2 (Homo sapiens, UniProt Q15910); test: Inhibition of EZH2 (unknown origin)
A549 = test: Antiproliferative activity against human A549 cells incubated for 72 hrs by CCK-8 assay; format: functional, cell-based; details: A549, 72 h
HepG2 = test: Antiproliferative activity against human HepG2 cells incubated for 72 hrs by CCK-8 assay; format: functional, cell-based; details: HepG2, 72 h
MCF7 [5] = test: Antiproliferative activity against human MCF7 cells incubated for 72 hrs by CCK-8 assay; format: functional, cell-based; details: MCF7, 72 h
PC-3 [6] = test: Antiproliferative activity against human PC-3 cells incubated for 72 hrs by CCK-8 assay; format: functional, cell-based; details: PC-3, 72 h
HeLa = test: Antiproliferative activity against human HeLa cells incubated for 72 hrs by CCK-8 assay; format: functional, cell-based
Histone deacetylase 1 [7] = molecular target: T1, Histone deacetylase 1; test: Inhibition of HDAC1 in human HeLa cell nuclear extract using Bos-Lys(acetyl)-AMC as substrate preincubated for 5 mins followed by substrate addition incubated for 30 mins; format: cell-free
[8] = system: Epidermal growth factor receptor (Homo sapiens), P00533 [UNDEFINED MUTATION]; test: Inhibition of EGFR T790M (unknown origin) at 1 uM incubated for 40 mins in presence of ATP relative to control
PC-3 [9] = test: Antiproliferative activity against human PC-3 cells incubated for 48 hrs by Sulforhodamine B staining method; format: functional, cell-based; details: PC-3, 48 h
DU-145 [10] = test: Antiproliferative activity against human DU-145 cells incubated for 48 hrs by Sulforhodamine B staining method; format: functional, cell-based; details: DU-145, 48 h
[11] = molecular target: Epidermal growth factor receptor (Homo sapiens, UniProt P00533); test: Inhibition of EGFR wildtype (unknown origin) incubated for 40 mins in presence of ATP
Bcr/Abl fusion protein = Bcr/Abl fusion protein (Homo sapiens, UniProt P00519); test: Inhibition of Bcr-Abl (unknown origin); format: protein assay
K562 = test: Cytotoxicity against human K562 cells
DU-145 [12] = test: Cytotoxicity against human DU-145 cells
MCF7 [13] = test: Cytotoxicity against human MCF7 cells; format: functional, cell-based
[14] = molecular target: cGMP-specific 3',5'-cyclic phosphodiesterase (Homo sapiens, UniProt O76074); test: Inhibition of PDE5 (unknown origin) incubated for 1.5 hrs by IMAP fluorescence polarization phosphodiesterase evaluation assay
Histone deacetylase [15] = test: Inhibition of HDAC (unknown origin) by H4 Hybrid Multi-Mode Microplate Reade; format: protein assay, Homo sapiens
[16] = molecular target: Receptor tyrosine-protein kinase erbB-2 (Homo sapiens, UniProt P04626); test: Inhibition of HER2 (unknown origin) at 10 ug/ml using synthetic biotinylated peptide as substrate by Wallac Victor II 1420 microplate reader method relative to control; details: dose 10.0 µg/ml
[17] = molecular target: Vascular endothelial growth factor receptor 2 (Homo sapiens, UniProt P35968); test: Inhibition of VEGFR2 (unknown origin)
[18] = molecular target: T2, Protein deacetylase HDAC6 (Homo sapiens, UniProt Q9UBN7); test: Inhibition of HDAC-6 (unknown origin) expressed in Escherichia coli BL21 (DE3) in HeLa nuclear extract using Boc-Lys(TFA)-AMC as substrate preincubated for 5 mins followed by substrate addition measured after 30 mins […]
T2 sequence (Q9UBN7 whole entry): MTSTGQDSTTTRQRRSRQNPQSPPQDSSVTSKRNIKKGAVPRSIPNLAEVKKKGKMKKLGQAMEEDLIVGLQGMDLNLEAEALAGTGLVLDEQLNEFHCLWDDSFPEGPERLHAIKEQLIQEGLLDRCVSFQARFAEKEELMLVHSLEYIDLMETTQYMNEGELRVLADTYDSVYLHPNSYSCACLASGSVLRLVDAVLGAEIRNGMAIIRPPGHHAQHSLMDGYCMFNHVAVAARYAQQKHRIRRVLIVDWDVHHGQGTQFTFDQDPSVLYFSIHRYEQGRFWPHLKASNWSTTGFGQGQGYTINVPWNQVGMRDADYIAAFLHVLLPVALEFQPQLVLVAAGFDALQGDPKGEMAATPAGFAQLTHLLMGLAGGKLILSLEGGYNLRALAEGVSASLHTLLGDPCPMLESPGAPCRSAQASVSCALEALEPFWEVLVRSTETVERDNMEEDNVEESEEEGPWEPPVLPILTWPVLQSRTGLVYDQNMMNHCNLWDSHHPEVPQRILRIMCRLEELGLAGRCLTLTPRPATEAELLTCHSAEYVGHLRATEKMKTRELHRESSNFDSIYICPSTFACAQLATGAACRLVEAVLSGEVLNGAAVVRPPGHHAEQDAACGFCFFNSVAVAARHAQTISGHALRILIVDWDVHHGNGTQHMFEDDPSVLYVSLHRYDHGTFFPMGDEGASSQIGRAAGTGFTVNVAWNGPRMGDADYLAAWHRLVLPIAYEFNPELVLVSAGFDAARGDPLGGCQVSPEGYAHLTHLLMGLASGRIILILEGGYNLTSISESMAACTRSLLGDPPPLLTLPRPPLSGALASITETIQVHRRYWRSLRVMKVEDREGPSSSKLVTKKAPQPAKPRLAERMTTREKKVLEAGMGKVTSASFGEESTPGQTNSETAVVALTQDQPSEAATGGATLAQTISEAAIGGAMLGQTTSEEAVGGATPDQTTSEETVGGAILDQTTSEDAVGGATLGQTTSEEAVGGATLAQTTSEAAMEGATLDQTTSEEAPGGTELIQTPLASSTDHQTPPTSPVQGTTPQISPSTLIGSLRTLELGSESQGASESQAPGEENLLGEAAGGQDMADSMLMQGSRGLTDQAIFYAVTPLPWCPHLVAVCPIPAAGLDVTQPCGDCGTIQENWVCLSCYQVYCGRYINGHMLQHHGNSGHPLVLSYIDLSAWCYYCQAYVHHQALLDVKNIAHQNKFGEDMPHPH

T1 sequence (Q13547 whole entry): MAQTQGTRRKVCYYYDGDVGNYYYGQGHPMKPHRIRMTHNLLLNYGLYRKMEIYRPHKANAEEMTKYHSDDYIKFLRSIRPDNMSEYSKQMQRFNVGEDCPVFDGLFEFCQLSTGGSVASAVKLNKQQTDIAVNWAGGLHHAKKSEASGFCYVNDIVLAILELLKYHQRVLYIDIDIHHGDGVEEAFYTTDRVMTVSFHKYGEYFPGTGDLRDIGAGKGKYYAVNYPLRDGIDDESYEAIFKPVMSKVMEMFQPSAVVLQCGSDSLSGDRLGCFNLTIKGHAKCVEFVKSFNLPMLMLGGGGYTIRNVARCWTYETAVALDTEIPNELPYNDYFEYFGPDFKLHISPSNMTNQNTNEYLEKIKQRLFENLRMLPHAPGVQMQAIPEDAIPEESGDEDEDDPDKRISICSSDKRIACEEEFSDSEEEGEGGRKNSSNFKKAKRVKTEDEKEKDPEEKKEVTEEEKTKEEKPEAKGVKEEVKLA
Epidermal growth factor receptor (Homo sapiens), P00533 [UNDEFINED MUTATION], sequence (P00533 whole entry, looked up, stated change not applied): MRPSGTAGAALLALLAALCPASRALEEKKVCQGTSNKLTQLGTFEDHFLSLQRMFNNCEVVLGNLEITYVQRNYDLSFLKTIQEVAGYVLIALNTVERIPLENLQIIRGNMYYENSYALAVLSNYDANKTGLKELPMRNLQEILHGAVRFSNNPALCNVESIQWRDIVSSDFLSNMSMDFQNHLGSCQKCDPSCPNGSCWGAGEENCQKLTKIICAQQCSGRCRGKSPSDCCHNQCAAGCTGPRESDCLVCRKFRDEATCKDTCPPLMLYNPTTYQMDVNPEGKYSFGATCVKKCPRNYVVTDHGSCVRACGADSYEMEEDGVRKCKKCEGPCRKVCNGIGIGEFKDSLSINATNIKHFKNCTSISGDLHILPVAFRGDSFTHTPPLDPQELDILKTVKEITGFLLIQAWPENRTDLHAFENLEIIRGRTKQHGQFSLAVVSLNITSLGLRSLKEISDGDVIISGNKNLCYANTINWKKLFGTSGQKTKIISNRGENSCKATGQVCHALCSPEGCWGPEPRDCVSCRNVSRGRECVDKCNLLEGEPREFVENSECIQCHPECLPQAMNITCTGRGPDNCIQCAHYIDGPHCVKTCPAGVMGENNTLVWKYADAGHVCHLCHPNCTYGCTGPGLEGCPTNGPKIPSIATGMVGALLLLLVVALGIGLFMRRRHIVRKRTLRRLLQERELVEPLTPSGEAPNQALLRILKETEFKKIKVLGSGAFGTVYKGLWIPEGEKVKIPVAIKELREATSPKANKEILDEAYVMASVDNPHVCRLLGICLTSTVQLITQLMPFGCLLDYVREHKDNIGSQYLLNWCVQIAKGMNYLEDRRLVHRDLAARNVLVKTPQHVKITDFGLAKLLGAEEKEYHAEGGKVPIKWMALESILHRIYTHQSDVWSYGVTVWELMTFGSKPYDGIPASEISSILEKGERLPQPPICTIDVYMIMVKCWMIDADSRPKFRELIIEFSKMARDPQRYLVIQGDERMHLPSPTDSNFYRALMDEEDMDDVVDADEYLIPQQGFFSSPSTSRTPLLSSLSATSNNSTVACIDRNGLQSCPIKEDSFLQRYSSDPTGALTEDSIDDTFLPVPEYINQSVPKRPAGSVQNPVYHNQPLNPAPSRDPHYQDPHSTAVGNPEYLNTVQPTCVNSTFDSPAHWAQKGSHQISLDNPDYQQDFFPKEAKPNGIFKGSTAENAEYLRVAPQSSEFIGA
Bcr/Abl fusion protein, sequence (P00519 whole entry, the tested form may be a part): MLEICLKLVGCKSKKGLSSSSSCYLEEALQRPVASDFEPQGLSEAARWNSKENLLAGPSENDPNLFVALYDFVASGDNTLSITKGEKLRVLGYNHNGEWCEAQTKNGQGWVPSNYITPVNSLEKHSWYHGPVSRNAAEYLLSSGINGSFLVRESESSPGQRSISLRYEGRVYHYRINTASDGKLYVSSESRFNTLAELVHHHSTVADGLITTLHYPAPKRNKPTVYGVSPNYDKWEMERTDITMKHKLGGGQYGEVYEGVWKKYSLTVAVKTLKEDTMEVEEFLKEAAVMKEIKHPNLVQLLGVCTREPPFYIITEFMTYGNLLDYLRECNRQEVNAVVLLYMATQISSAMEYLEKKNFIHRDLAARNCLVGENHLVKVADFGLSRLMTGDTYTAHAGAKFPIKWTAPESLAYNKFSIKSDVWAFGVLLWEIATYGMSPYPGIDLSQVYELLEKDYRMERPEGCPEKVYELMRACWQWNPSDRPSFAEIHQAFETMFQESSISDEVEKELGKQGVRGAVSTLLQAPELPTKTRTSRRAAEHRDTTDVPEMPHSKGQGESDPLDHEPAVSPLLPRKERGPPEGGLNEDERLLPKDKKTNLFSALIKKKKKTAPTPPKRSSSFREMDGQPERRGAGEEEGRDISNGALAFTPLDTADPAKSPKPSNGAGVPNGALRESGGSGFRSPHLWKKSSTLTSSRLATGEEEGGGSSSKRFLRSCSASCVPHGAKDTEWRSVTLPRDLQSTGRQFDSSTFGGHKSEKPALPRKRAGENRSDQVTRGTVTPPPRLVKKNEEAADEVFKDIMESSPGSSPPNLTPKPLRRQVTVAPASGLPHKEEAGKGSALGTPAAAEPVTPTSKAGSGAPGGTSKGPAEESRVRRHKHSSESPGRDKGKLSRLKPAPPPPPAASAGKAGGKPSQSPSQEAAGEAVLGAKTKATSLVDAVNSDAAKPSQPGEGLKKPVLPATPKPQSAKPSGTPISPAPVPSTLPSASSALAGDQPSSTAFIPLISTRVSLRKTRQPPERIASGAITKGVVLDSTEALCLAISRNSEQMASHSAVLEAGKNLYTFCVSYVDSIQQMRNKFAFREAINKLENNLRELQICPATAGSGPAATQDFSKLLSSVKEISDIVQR
Bcr/Abl fusion protein, sequence (P11274 whole entry, further chain, the tested form may be a part): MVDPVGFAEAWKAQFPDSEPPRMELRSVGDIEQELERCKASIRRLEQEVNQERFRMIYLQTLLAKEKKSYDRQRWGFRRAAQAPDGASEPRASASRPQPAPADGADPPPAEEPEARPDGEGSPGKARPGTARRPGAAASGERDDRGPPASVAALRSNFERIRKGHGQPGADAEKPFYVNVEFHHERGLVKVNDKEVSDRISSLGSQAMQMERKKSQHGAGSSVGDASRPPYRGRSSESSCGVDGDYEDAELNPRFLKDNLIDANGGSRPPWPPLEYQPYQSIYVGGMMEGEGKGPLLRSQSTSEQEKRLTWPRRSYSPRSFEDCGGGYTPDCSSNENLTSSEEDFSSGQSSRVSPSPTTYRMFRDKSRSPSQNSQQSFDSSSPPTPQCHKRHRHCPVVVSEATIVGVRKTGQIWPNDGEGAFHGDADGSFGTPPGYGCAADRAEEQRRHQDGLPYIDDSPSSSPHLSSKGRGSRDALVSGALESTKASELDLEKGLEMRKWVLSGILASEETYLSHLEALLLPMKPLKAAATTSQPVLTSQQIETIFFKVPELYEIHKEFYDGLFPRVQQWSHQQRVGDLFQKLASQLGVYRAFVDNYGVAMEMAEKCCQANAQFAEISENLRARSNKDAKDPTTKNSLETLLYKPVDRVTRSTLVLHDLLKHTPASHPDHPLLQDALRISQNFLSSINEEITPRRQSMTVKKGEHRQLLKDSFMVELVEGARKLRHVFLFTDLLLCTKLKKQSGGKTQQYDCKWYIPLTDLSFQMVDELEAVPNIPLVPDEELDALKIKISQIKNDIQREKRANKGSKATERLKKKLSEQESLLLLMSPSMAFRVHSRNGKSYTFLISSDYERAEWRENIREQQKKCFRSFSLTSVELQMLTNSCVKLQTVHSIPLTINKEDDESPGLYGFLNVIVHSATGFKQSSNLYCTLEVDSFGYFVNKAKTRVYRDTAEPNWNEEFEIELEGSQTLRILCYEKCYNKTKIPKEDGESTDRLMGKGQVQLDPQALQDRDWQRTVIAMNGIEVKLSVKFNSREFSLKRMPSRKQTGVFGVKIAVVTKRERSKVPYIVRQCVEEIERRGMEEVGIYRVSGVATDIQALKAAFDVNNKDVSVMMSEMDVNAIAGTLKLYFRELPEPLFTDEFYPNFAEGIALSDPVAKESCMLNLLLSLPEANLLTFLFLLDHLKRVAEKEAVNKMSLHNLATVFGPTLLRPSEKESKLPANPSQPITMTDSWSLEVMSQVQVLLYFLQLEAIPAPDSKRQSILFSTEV
Histone-lysine N-methyltransferase EZH2, sequence (Q15910 whole entry): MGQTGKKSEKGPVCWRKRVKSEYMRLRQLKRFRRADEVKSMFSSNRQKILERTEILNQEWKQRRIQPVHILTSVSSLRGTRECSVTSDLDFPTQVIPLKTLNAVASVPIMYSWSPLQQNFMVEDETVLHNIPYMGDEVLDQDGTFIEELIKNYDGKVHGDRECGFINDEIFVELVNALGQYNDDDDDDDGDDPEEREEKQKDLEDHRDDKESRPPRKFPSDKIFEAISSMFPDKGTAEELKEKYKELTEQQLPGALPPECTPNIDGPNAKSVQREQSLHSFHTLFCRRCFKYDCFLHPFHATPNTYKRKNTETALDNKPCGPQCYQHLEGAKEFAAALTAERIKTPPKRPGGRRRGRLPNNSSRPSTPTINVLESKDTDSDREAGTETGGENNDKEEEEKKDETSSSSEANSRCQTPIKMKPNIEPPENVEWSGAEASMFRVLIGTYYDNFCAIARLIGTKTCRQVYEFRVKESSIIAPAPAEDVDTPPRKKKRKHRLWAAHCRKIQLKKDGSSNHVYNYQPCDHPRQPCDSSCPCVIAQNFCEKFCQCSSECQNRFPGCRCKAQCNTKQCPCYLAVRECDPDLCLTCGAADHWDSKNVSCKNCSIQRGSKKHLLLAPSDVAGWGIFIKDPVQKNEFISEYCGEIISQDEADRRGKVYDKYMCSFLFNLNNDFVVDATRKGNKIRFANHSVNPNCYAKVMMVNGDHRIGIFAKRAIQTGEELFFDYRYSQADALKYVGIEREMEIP

Structure (SMILES): CNC(=O)c1cc(Oc2ccc(NC(=O)c3ccc4ccccc4c3)cc2)ccc1N
IC50 (Histone deacetylase [1]): 8210 nM

Structure (SMILES): CNC(=O)c1cc(Oc2ccc(NC(=O)c3cccnc3)cc2)ccc1N
IC50 (Histone deacetylase [1]): 5230 nM

Structure (SMILES): Cn1c(CCCCCCC(=O)NO)nc2cc(N(CCCl)CCCl)ccc21 [TINOSTAMUSTINE]
IC50 (Histone deacetylase 1 [2]): 10 nM
IC50 [3]: 2200 nM

Structure (SMILES): C[C@H]1COc2c(N3CCN(C)CC3)c(F)cc3c(=O)c(C(=O)O)cn1c23 [LEVOFLOXACIN]
IC50 (A549): > 70000 nM
IC50 (HepG2): > 70000 nM
IC50 (MCF7 [5]): > 70000 nM
IC50 (PC-3 [6]): > 70000 nM
IC50 (HeLa): > 70000 nM
IC50 (Tubulin): 11300 nM

Structure (SMILES): Cn1cc(-c2ccnc(Nc3ccc(NC(=O)CCCCCC(=O)NO)cc3)n2)c2ccccc21
IC50 (Histone deacetylase 1 [7]): 23 nM
inhibition [8]: 35%

Structure (SMILES): CNC(=O)c1cc(Oc2ccc(NC(=O)c3cccc(N)c3)cc2)ccc1N
IC50 (Histone deacetylase [1]): 1030 nM

Structure (SMILES): COc1cc2/c(=N/c3ccc(Br)cc3F)nc[nH]c2cc1OCC1CCN(C)CC1 [VANDETANIB]
IC50 (MCF7 [13]): 18500 nM
IC50 (Histone deacetylase [1]): > 10000 nM

Structure (SMILES): O=C(O)CCN1CC(=O)N2[C@H](CC3c4ccccc4NC3[C@H]2c2ccc(Br)cc2)C1=O (some centres undefined)
IC50 [14]: 2 nM

Structure (SMILES): NC(=O)c1cc(Oc2ccc(NC(=O)c3ccc(Cl)c(C(F)(F)F)c3)cc2)ccc1N
IC50 (Histone deacetylase [1]): 2790 nM

Structure (SMILES): COc1cc2ncnc(Nc3ccc(Br)cc3)c2cc1OCCCCCCC(=O)NO
IC50 (MCF7 [13]): 880 nM

Structure (SMILES): COCCOc1cc2ncnc(Nc3ccc(/C=C/C(=O)NO)cc3)c2cc1OCCOC
inhibition [16]: 64.2%

Further lines, with some results ahead:

IC50 (Tubulin): 6630 nM
Structure (SMILES): C[C@H]1COc2c(N3CCN(C)CC3)c(F)cc3c(=O)c(C(=O)OCc4cn(CCCCCCCC(=O)NO)nn4)cn1c23

IC50 (Tubulin): 6680 nM
Structure (SMILES): C[C@H]1COc2c(N3CCN(C)CC3)c(F)cc3c(=O)c(C(=O)NCc4cn(CCCCCCCC(=O)NO)nn4)cn1c23

IC50 [4]: 5780 nM
Structure (SMILES): Cc1cc(C)c(CNC(=O)c2cnn(-c3ccccc3)c2C)c(=O)[nH]1

IC50 (PC-3 [9]): 1860 nM
IC50 (DU-145 [10]): 2000 nM
Structure (SMILES): CN(C)CCNC(=O)c1cccc2cc3ccccc3nc12

IC50 (Histone deacetylase 1 [7]): 85 nM
IC50 [11]: 5900 nM
inhibition [8]: 15%
Structure (SMILES): COc1cc(NC(=O)CCCCCCC(=O)NO)ccc1Nc1nccc(-c2cn(C)c3ccccc23)n1

IC50 (Histone deacetylase 1 [2]): 150 nM
IC50 (Bcr/Abl fusion protein): 21200 nM
Structure (SMILES): CCN1CCN(c2cc(Nc3ncc(C(=O)Nc4ccccc4N)s3)nc(C)n2)CC1
IC50 (K562): 2560 nM
IC50 (DU-145 [12]): 5790 nM

IC50 (Histone deacetylase 1 [2]): 810 nM
IC50 (Bcr/Abl fusion protein): 17800 nM
Structure (SMILES): CCN1CCN(c2cc(Nc3ncc(C(=O)Nc4ccc(F)cc4N)s3)nc(C)n2)CC1
IC50 (K562): 2620 nM
IC50 (DU-145 [12]): 600 nM

IC50 (Histone deacetylase [1]): 1950 nM
Structure (SMILES): CNC(=O)c1cc(Oc2ccc(NC(=O)c3cccc(O)c3)cc2)ccc1N

IC50 (Histone deacetylase 1 [7]): 121 nM
inhibition [8]: 13%
Structure (SMILES): COc1cc(NC(=O)CCCCCC(=O)NO)ccc1Nc1nccc(-c2cn(C)c3ccccc23)n1

IC50 [14]: 46.2 nM
IC50 (Histone deacetylase [15]): 14.2 nM
Structure (SMILES): O=C(CCCCCCN1CC(=O)N2[C@H](CC3c4ccccc4NC3[C@H]2c2ccc(Br)cc2)C1=O)NO (some centres undefined)

IC50 (Histone deacetylase [1]): 2.8 nM
IC50 [17]: 84 nM
Structure (SMILES): COc1cc2ncnc(Nc3ccc(Cl)cc3Cl)c2cc1OCCCCCCC(=O)NO
IC50 (MCF7 [13]): 12000 nM

IC50 [18]: 2.3 nM
Structure (SMILES): O=C(CCCCCNC(=O)c1cccc2cc3ccccc3nc12)NO
